Results taken from ChEMBL document CHEMBL4477215, “Specific Correction of Alternative Survival Motor Neuron 2 Splicing by Small Molecules: Discovery of a Potential Novel Medicine To Treat Spinal Muscular Atrophy” (J Med Chem, 2016).
Active and inactive are the calls of the source. The rule behind the calls is not given here.

Key:
Homo sapiens [1] = organism: Homo sapiens; assay: Inhibition of mRNA splicing of SMN2 exon 7 in fibroblasts derived from human SMA type 1/2/3 patient assessed as increase in SMN protein level after 48 hrs by HTRF assay
[2] = Mutagenicity in Salmonella typhimurium TA1535 assessed as increase in revertant colonies after 2 days in presence of rat liver S9 fraction by Ames test relative to control; type: toxicity; conditions: salmonella enterica subsp. enterica serovar typhimurium, s9, 48 h
[3] = Mutagenicity in Salmonella typhimurium TA98 assessed as increase in revertant colonies after 2 days in presence of rat liver S9 fraction by Ames test relative to control; type: toxicity; conditions: salmonella enterica subsp. enterica serovar typhimurium, s9, 48 h
[4] = Mutagenicity in Salmonella typhimurium TA97 assessed as increase in revertant colonies after 2 days in presence of rat liver S9 fraction by Ames test relative to control; type: toxicity; conditions: salmonella enterica subsp. enterica serovar typhimurium, s9, 48 h
[5] = Mutagenicity in Salmonella typhimurium TA100 assessed as increase in revertant colonies after 2 days in presence of rat liver S9 fraction by Ames test relative to control; type: toxicity; conditions: salmonella enterica subsp. enterica serovar typhimurium, s9, 48 h
[6] = Mutagenicity in Salmonella typhimurium TA102 assessed as increase in revertant colonies after 2 days in presence of rat liver S9 fraction by Ames test relative to control; type: toxicity; conditions: salmonella enterica subsp. enterica serovar typhimurium, s9, 48 h
Homo sapiens [7] = organism: Homo sapiens; assay: Inhibition of mRNA splicing of SMN2 exon 7 in GM03813 fibroblasts derived from human SMA type 1 patient after 24 hrs by RT-qPCR analysis
[8] = Octanol-aqueous phosphate buffer distribution coefficient, log D of the compound at pH 7.4 at 100 mM after 24 hrs by LC-MS based shake flask method; type: physicochemical
P-gp (ABCB1) = P-gp (ABCB1) (Homo sapiens, UniProt P08183); assay: Substrate activity at human P-gp assessed as efflux ratio by cell based assay; conditions: not told
[9] = Stability in human plasma assessed as compound remaining after 5 hrs; type: ADME, cell-free; conditions: read-out: Stability
NIH3T3 = assay: Phototoxicity in mouse 3T3 cells in presence of UVA irradiation; type: functional, cell-based; conditions: NIH3T3, light or radiation study
[10] = Stability of the compound in human plasma; type: ADME, cell-free
[11] = Stability of the compound in pH 1 to 12 aqueous buffer; type: physicochemical

P-gp (ABCB1), sequence (P08183 whole entry): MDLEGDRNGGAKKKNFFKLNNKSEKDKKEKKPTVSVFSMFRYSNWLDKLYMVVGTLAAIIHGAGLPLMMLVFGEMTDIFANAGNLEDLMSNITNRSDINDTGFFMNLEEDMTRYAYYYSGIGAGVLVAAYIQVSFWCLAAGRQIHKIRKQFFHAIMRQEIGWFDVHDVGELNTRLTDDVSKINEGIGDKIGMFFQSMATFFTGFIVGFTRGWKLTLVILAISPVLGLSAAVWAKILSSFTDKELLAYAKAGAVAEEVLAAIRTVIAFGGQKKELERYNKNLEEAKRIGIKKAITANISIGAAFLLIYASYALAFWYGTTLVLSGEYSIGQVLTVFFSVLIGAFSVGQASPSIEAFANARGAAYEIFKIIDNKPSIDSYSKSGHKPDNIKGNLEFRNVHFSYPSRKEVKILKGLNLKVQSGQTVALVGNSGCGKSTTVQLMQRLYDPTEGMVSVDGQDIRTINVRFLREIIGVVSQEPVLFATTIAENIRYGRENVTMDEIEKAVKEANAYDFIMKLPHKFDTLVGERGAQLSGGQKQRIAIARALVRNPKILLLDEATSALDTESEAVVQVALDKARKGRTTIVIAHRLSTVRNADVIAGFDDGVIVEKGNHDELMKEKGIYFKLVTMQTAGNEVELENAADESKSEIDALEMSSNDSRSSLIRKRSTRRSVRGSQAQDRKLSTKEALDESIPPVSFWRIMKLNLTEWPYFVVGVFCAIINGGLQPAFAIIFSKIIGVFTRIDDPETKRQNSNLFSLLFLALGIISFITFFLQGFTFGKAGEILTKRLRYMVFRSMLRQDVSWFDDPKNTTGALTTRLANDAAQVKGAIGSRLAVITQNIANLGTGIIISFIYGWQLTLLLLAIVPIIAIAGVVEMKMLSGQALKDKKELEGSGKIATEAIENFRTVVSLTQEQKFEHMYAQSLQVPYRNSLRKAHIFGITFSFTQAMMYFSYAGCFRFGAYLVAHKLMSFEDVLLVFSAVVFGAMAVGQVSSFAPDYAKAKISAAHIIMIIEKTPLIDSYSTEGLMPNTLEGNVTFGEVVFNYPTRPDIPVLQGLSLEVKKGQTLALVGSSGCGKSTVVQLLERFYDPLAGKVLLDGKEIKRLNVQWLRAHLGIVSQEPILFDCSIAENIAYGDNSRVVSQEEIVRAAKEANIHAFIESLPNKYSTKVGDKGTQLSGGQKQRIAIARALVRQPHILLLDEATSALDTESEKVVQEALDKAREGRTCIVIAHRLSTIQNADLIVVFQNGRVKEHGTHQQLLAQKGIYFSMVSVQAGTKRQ

| EC1.5 (Homo sapiens [1]) | EC1.5 (Homo sapiens [7]) | SMILES | fold change (FC) [2] | fold change (FC) [3] | fold change (FC) [4] | fold change (FC) [5] | fold change (FC) [6] | Activity [2] | Activity [3] | Activity [4] | Activity [5] | Activity [6] | other results |
| --- | --- | --- | --- | --- | --- | --- | --- | --- | --- | --- | --- | --- | --- |
| 13 nM | 3 nM | Cc1nc2c(F)cc(-c3cc(=O)n4cc(N5CCN(C)CC5)ccc4n3)cc2o1 | < 2 | < 2 | < 1.5 | < 1.5 | < 1.5 | – | – | – | – | – | logD at 24 h [8]: 2.46; efflux ratio (P-gp (ABCB1)): 1.1 |
| – | – | CC(=O)c1cc2ccc(F)cc2c(=O)o1 | – | – | – | – | – | – | – | – | – | – | remaining at 5 h [9]: 16% |
| 395 nM | 148 nM | Cc1nc2ccc(-c3cc(=O)n4cc(N5CCN(C)CC5)ccc4n3)cc2o1 | < 2 | < 2 | < 1.5 | < 1.5 | < 1.5 | – | – | – | – | – | – |
| – | – | CCN1CCN(c2ccc3cc(-c4cn5cc(C)nc(C)c5n4)c(=O)oc3c2)C[C@@H]1C | – | – | – | – | – | – | – | – | – | – | remaining at 5 h [9]: 93%; IC50 (NIH3T3): 80 nM |
| 163 nM | 40 nM | CCc1nc(C)cn2nc(-c3cc(=O)n4cc(N5CCN6CCC[C@H]6C5)ccc4n3)cc12 | – | – | – | – | – | Non-Toxic | Non-Toxic | Non-Toxic | Non-Toxic | Non-Toxic | – |
| 170 nM | 92 nM | Cc1cn2nc(-c3cc(=O)n4cc(N5CCN(C)CC5)ccc4n3)cc2c(C)n1 | – | – | – | – | – | Non-Toxic | Non-Toxic | Non-Toxic | Non-Toxic | Non-Toxic | IC50 (NIH3T3): 2900 nM; Stability [10]: Stable; Stability [11]: Stable |
| 760 nM | 182 nM | Cc1cn2cc(-c3cc(=O)n4cc(N5CCN(C)CC5)ccc4n3)ccc2n1 | < 2 | < 2 | < 1.5 | < 1.5 | < 1.5 | – | – | – | – | – | – |
| – | – | Cc1cn2cc(-c3cc4ccc(N5CCN(C)CC5)cc4c(=O)o3)nc2c(C)n1 | – | – | – | – | – | – | – | – | – | – | remaining at 5 h [9]: 55%; IC50 (NIH3T3): 150 nM |
| – | – | Cc1cn2cc(-c3cc4ccc(F)cc4c(=O)o3)nc2c(C)n1 | – | – | – | – | – | – | – | – | – | – | remaining at 5 h [9]: 30% |
| 4 nM | 1 nM | Cc1nc2c(F)cc(-c3cc(=O)n4cc(N5CCNCC5)ccc4n3)cc2o1 | < 2 | < 2 | < 1.5 | < 1.5 | < 1.5 | – | – | – | – | – | – |
| 46 nM | – | Cc1cn2cc(-c3cc(=O)n4cc(N5CCC(N6CCC6)CC5)ccc4n3)cc2c(C)n1 | – | – | – | – | – | – | – | – | – | – | logD at 24 h [8]: 1.53; efflux ratio (P-gp (ABCB1)): 6.6 |
| 820 nM | 314 nM | Cc1nc2ccc(-c3cc(=O)n4cc(N5CCN(C)CC5)ccc4n3)cn2n1 | < 2 | < 2 | < 1.5 | < 1.5 | < 1.5 | – | – | – | – | – | – |
| inactive | inactive | CN1CCN(c2ccc3nc(-c4ccc5c(c4)ncn5C)cc(=O)n3c2)CC1 | < 2 | < 2 | < 1.5 | < 1.5 | < 1.5 | – | – | – | – | – | – |
| 84 nM | 30 nM | CCN1CCC(c2cc(C)c3nc(-c4cc5c(C)nc(C)cn5n4)cc(=O)n3c2)CC1 | – | – | – | – | – | Non-Toxic | Non-Toxic | Non-Toxic | Non-Toxic | Non-Toxic | logD at 24 h [8]: 1.87; efflux ratio (P-gp (ABCB1)): 1.4 |
| 76 nM | – | Cc1cn2cc(-c3cc(=O)n4cc(N5CCC(N6CCCC6)CC5)ccc4n3)cc(C(F)(F)F)c2n1 | – | – | – | – | – | – | – | – | – | – | logD at 24 h [8]: 1.45; efflux ratio (P-gp (ABCB1)): 8.5 |
| 77 nM | 57 nM | Cc1cn2nc(-c3cc(=O)n4cc(C5CCN(C)CC5)cc(C)c4n3)cc2c(C)n1 | – | – | – | – | – | Non-Toxic | Non-Toxic | Non-Toxic | Non-Toxic | Non-Toxic | logD at 24 h [8]: 1.82; efflux ratio (P-gp (ABCB1)): 1.2 |
| 3400 nM | 582 nM | CN1CCN(c2ccc3nc(-c4ccc5nccn5c4)cc(=O)n3c2)CC1 | < 2 | < 2 | < 1.5 | < 1.5 | < 1.5 | – | – | – | – | – | – |
| 9 nM | 1 nM | Cc1cn2cc(-c3cc(=O)n4cc(N5CCNCC5)ccc4n3)cc(F)c2n1 | – | – | – | – | – | Non-Toxic | Non-Toxic | Non-Toxic | Non-Toxic | Non-Toxic | – |

| SMILES | EC1.5 (Homo sapiens [1]) | EC1.5 (Homo sapiens [7]) | fold change (FC) [2] | fold change (FC) [3] | fold change (FC) [4] | fold change (FC) [5] | fold change (FC) [6] | Activity [2] | Activity [3] | Activity [4] | Activity [5] | Activity [6] | other results |
| --- | --- | --- | --- | --- | --- | --- | --- | --- | --- | --- | --- | --- | --- |
| CCc1nc(C)cn2nc(-c3cc(=O)n4cc(C5=CCNCC5)cc(C)c4n3)cc12 | 15 nM | 6 nM | – | – | – | – | – | Non-Toxic | Non-Toxic | Non-Toxic | Non-Toxic | Non-Toxic | – |
